The target in experiment [1] is photolabile unchained HLA-A*11:01 pMHC-I protein (Homo sapiens, UniProt P04439, A114D/D185E/E176A/F33Y/L180Q/S129P/T187R). The experiment is described as follows: ELISA with photolabile unchained pMHC-I protein and UV irradiation. The experiment is classed as binding.
Experiment [2] deals with HLA-A*11:01 single chain protein. The experiment is classed as biochemical, Human. To be noted: for EZ50kDa: Table 3, EGFR peptide library (n = 177, duplicated), pH 6.2, 37 °C, 14 h, enterokinase, Eq. (4); for vol: mean Adj. Volume of the 2 replicates; for Batch Mean: mean of the 2 replicates of EZ50kD. Also noted: EZ50kDa / EZ50kD (pH 6.2) / EZ50kD (pH 8) / EZ50kD (normalised: EBV1101 = 1, EBV0201 = 0) / EZ50kDa rank: unit not given beside the values.

In experiment [3] the target is T1, photo-labile unchained HLA-A*11:01 MHC-I protein (Homo sapiens, UniProt P04439, A114D/D185E/E176A/F33Y/L180Q/S129P/T187R).
T1 construct: made in house
The experiment is described as follows: Photo-labile unchained MHC-I protein treated with UV, peptides and enterokinase (SDS-PAGE band volume). The experiment is classed as biochemical. To be noted: for vol: mean Adj. Volume of the 2 replicates; for Batch Mean: mean of the 2 replicates of EZ50kD.

Where [4] appears, read: EGFR mutation peptide library and control peptides, HLA-A*11:01, mean, STDEV.

Values joined by “and” are separate entries in the source; they are usually repeats but may differ in a detail not shown here. Equal entries are not always repeated. Where two headings read alike, the source gives them in different places.
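Throughout, for EZ50kDa: intact 50 kDa band volume scaled with positive control peptide as 1 and negative as 0.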

The sequence GSLLDYVREHK [CS1037] returned an EASY_mean in experiment [1] of 0.5397. For the same sequence, in experiment [2], the EZ_mean turned out to be 0.3673, the EZ50kDa is given as 0.367 ± 0.022, the vol is reported as 11854307 and the “Batch Mean” value was found to be 0.2216. Also, in experiment [3], the vol is listed as 9517473 and the “Batch Mean” value is -1.196.

In the case of MQLMPFGCLLDY [TM1050], the EASY_mean in experiment [1] worked out at 0.2124. Further, in experiment [2], the EZ_mean came to 0.09599, the EZ50kDa came out at 0.0956 ± 0.004, the vol is reported as 8153341 and the “Batch Mean” value amounted to 0.1072. In addition, in experiment [3], the vol came to 5027054 and the “Batch Mean” value was -0.2574.

QLMPFGSLLDY [CS1032]: the EASY_mean in experiment [1] (setting [4]) is given as 0.7325. Besides, in experiment [2], the EZ_mean is 0.8691, the Norm_mean is 1.167, the EZ50kDa was 0.869 ± 0.174 and the vol is listed as 30217126. The “Batch Mean” value in experiment [2] is reported as 0.787. Further, in experiment [3], the vol turned out to be 11215354 and the “Batch Mean” value is reported as -0.05053.

Consider SLLDYVREH [CS1017], for which, in experiment [1], the EASY_mean turned out to be 0.4725. In experiment [2] (EASY MHC-I A*11:01, 2019-08-01, mean of the 2 replicates), this sequence gave an EZ_mean of 0.7333. For the same sequence, in experiment [2] (Fig. 2f,g, EGFR peptide library), the “EZ MHC-I stability with HLA-A*11:01 single chain protein” value is “strongly stabilizing”. In experiment [2], the EZ50kDa is on record as 0.733 ± 0.140, the vol came out at 26057980 and the “Batch Mean” value amounted to 0.6595. For the same sequence, in experiment [3], the vol was determined as 10431446 and the “Batch Mean” value is reported as -0.3978.

SLLDYVREHK [CS1027]: the EASY_mean in experiment [1] (setting [4]) was 0.7046. In experiment [2], this sequence gave an EZ_mean of 0.9134, a Norm_mean of 1.317, an EZ50kDa of 0.811 ± 0.171 and a vol of 29201845. Besides, the “Batch Mean” value in experiment [2] worked out at 0.7556. In experiment [3], the vol came out at 11075589 and the “Batch Mean” value is reported as -1.466.

On to SLLDYVREHKDN [CS1050], for which the EASY_mean in experiment [1] came to 0.2031. In experiment [2], the EZ50kDa worked out at 0.0255 ± 0.005, the vol is on record as 7574013 and the “Batch Mean” value is reported as 0.08881. For the same sequence, in experiment [3], the vol was 12012525 and the “Batch Mean” value is -2.24.

For “VAIKTSPKANK [EX1018, EGFR exon 19 deletion-derived peptide]”, in experiment [1] ([…], mean, STDEV), the EASY_mean is recorded as 0.2323. The EZ_mean in experiment [2] (EASY MHC-I A*11:01, 2019-07-26, mean of the 2 replicates) was 0.2216. Also, in experiment [2], the EZ50kDa is 0.2 and 0.222 ± 0.010; the vol is listed as 9218005; the “Batch Mean” value stood at 0.1404. In experiment [3], the vol stood at 8041509 and the “Batch Mean” value turned out to be 0.2261.

Source of the values: article PMC7483518, “Destabilizing single chain major histocompatibility complex class I protein for repurposed enterokinase proteolysis” (Scientific Reports, 2020).
